Test results as given in patent publication US20240110183A1, “ANTIFIBROTIC AND ANTITUMOR ACTIVITY OF CD63 BLOCKADE” (The Board of Trustees of the Leland Stanford Junior …, priority 2020, published 2024).

Test system: HK2, NRK52E, NRK49F cell lines
Assay: RT-qPCR analysis of kidney cell lines treated with TGFβ1
Format: cell-based, human, rat
Conditions: TGFβ1 10 ng/ml, FIG. 21
Experimental: FIG. 21A-FIG. 21C. Activation of TGFβ1 signaling pathway elevated the expression of fibrotic related proteins in 3 kidney cell lines. (FIG. 21 FIG. 21A) Human epithelial (HK2), (FIG. 21 B) rat epithelial (NRK52E), (FIG. 21C) rat fibroblast (NRK49F) cell lines were treated with TGFβ1 (10 ng/ml) or TGFβ1 (10 ng/ml) plus LY2109761 (2.5 μM) for indicated times in hours.
Activation of TGFβ1 signaling pathway elevated the expression of fibrotic related proteins in 3 kidney cell lines. Human epithelial (HK2), rat epithelial (NRK52E), rat fibroblast (NRK49F) cell lines were treated with TGFβ1 (10 ng/ml) or TGFβ1 (10 ng/ml) plus LY2109761 (2.5 μM) for times indicated in hours as shown in FIG. 21 A-C.

TGFβ1: TGFβ1 (10 ng/ml) used to activate the TGFβ1 signaling pathway in kidney cell lines
expression of CD63 and its known interactor TIMP1 (HK2, NRK52E, NRK49F): not increased | expression of fibrotic related proteins (human epithelial (HK2), rat epithelial (NRK52E), rat fibroblast (NRK49F)): elevated
